Assay results taken from patent US4968609A, “Coryneform bacteria carrying recombinant DNA and a process for producing aromatic amino acids using said bacteria” (priority 1984, dated 1990).

Assays:
[1] = test system: 3-deoxy-D-arabinoheptulonic acid-7-phosphate synthetase (DS) of Brevibacterium lactofermentum AJ 12036; assay: DS activity of crude enzyme solution with amino acids added, strain AJ 12036; settings: 1 mM each; crude enzyme of AJ 12036; activity with none added = 100%
[2] = test system: 3-deoxy-D-arabinoheptulonic acid-7-phosphate synthetase (DS) of Brevibacterium lactofermentum AJ 12181(AJ 12036/pAR-1); assay: DS activity of crude enzyme solution with amino acids added, strain AJ 12181 (AJ 12036/pAR-1); settings: 1 mM each; crude enzyme of AJ 12181 (AJ 12036/pAR-1); activity with none added = 100%
[3] = test system: 3-deoxy-D-arabinoheptulonic acid-7-phosphate synthetase (DS) of Brevibacterium lactofermentum AJ 12182(AJ 12036/pAR-2); assay: DS activity of crude enzyme solution with amino acids added, strain AJ 12182 (AJ 12036/pAR-2); settings: 1 mM each; crude enzyme of AJ 12182 (AJ 12036/pAR-2); activity with none added = 100%
[4] = test system: Brevibacterium lactofermentum AJ 12036 transformed with pAR-1 and pAR-2; assay: Sensitivity of retransformants to m-fluorophenylalanine; assay type: cell-based; settings: 50 chloramphenicol-resistant retransformants of AJ 12036 with pAR-1 and pAR-2
Experimental: After culturing at 30° C. for 2 weeks, about 25000 colonies resistant to chloramphenicol appeared, which were replicated in minimal medium (which contained 2% of glucose, 1% of ammonium sulfate, 0.3% of urea, 0.1% of KH2 PO4, 0.04% of MgSO4 ·7H2 O, 2 ppm of iron ions, 2 ppm of manganese ions, […] of thiamine hydrochloride, 50 μg/ml of biotin, 500 μg/ml of m-fluorophenylalanine and 10 μg/ml of chloramphenicol, pH 7.0, 1.8% of agar) to obtain 5 strains resistant to chloramphenicol and m-fluorophenylalanine.
In order to confirm that the gene was present on the recombinant plasmid carrying the DNA fragment, Brevibacterium lactofermentum AJ 12036 was again transformed using the plasmids pARl and pAR-2.
Clearly the genes imparting the m-fluorophenylalanine resistance were present on the above-described plasmids.

[5] = test system: 3-deoxy-D-arabinoheptulonic acid-7-phosphate synthetase (DS) of Brevibacterium lactofermentum AJ 11957; assay: DS activity of crude enzyme solution with amino acids added, strain AJ 11957; settings: 1 mM each; crude enzyme of AJ 11957; activity with none added = 100%

N[C@@H](Cc1ccc(O)cc1)C(=O)O [Tyrosine, tyrosine]
Residual Activity When Each Amino Acid Was Added [1]: 51%
Residual Activity When Each Amino Acid Was Added [2]: 109%
Residual Activity When Each Amino Acid Was Added [3]: 88%

N[C@@H](Cc1cccc(F)c1)C(=O)O [m-fluorophenylalanine]
sensitivity to m-fluorophenylalanine [4]: All of the strains demonstrated m-fluorophenylalanine resistance

N[C@@H](Cc1ccccc1)C(=O)O [Phenylalanine, phenylalanine]
Residual Activity When Each Amino Acid Was Added [5]: 107%
Residual Activity When Each Amino Acid Was Added [1]: 94%
Residual Activity When Each Amino Acid Was Added [2]: 112%
Residual Activity When Each Amino Acid Was Added [3]: 99%
